From patent US11534448B2, “Use of canagliflozin in preparation of antitumor drug” (ZHEJIANG UNIVERSITY, priority 2019, dated 2022)

Experiments:
Format in all cases: cell-based, human
PD-L1 [1] = experiment: PD-L1 protein stability (cycloheximide chase, Western blotting, gray-scale analysis); settings: H1299 cells; IFNγ 10 ng/mL 24 h, then CHX (10 g/mL) + canagliflozin 20 μM vs CHX alone; 0-12 h; FIG. 3
Method: The non-small cell lung cancer H1299 cells were inoculated in 6-well plates (1.0×10^6 cells/well), and incubated overnight in incubator at 37° C. with 5% CO2. On the next day, the plates were first added with γ-interferon (IFNγ, 10 ng/mL), and after 24 hours, a protein synthesis inhibitor cycloheximide (CHX, […]) or a co-administration group of CHX ([…])+canagliflozin (20 μM) was administrated simultaneously for these plates. After 0 h, 2 h, 4 h, 6 h, 8 h, and 12 h, respectively, the cells were collected to detect the change of the protein level of PD-L1 in the cells by Western blotting, and a gray-scale analysis was performed to plot a curve for investigating the protein stability.

PD-L1 [2] = experiment: Flow cytometry of PD-L1 expression on cell surfaces; settings: canagliflozin 20 μM + IFNγ 10 ng/mL, 24 h, FIG. 2
Method: Two human tumor cell lines, non-small cell lung cancer H1299 cells and osteosarcoma MG63 cells, were selected and respectively inoculated in 6-well plates (1.0×10^6 cells/well), and incubated overnight in incubator at 37° C. with 5% CO2. On the next day, each plate was added with canagliflozin (20 μM) and γ-interferon (IFNγ, 10 ng/mL), and after 24 hours, the PD-L1 expressions on the cell surfaces were detected with flow cytometry.

[3] = test system: non-small cell lung cancer H1299 cells; experiment: Killing effect of activated T cells on co-incubated tumor cells (crystal violet staining); settings: H1299 cells treated with canagliflozin 20 μM + IFNγ 10 ng/mL for 24 h, PD-L1 antibody drug as positive control, FIG. 4
Method: (§1) PBMC cells were isolated from human blood samples using Ficoll separation solution, and then stimulated with CD3 and CD28 for 3 days to activate T cells in PBMC, and in the meantime, interleukin-2 (IL-2, 50 U/uL) was administrated to maintain the growth of T cells. The activated T cells were co-incubated with the tumor cells that had been treated with canagliflozin (20 μM) and γ-interferon (IFNγ, 10 ng/mL) for 24 hours. A PD-L1 antibody drug was used as a positive control. The killing effect of T cells on tumor cells was investigated, and a crystal violet staining method was employed to investigate the killing effect of T cells on tumor cells.

osteosarcoma MG63 cells = experiment: as above; settings: MG63 cells treated with canagliflozin 20 μM + IFNγ 10 ng/mL for 24 h, PD-L1 antibody drug as positive control, FIG. 4
Method: as §1

PD-L1 [4] = experiment: Western blotting of PD-L1 total protein expression in tumor cells; settings: canagliflozin 20 μM + IFNγ 10 ng/mL, 24 h, FIG. 1
Method: Multiple human tumor cells, non-small cell lung cancer H1299 cells and osteosarcoma MG63 cells, were selected and respectively inoculated in 6-well plates (1.0×10^6 cells/well), and incubated overnight in incubator at 37° C. with 5% CO2. On the next day, each plate was added with canagliflozin (20 μM) and γ-interferon (IFNγ, 10 ng/mL), and after 24 hours, the cells were collected and lysed to extract the proteins. The expression of PD-L1 in the cells were detected by Western blotting.

[5] = non-small cell lung cancer H1299 cells

Cc1ccc([C@@H]2O[C@H](CO)[C@@H](O)[C@H](O)[C@H]2O)cc1Cc1ccc(-c2ccc(F)cc2)s1 [canagliflozin, (1S)-1,5-anhydro-1-C-[3-[[5-(4-fluorophenyl)-2-thienyl]methyl]-4-methylphenyl]-D-glucitol]
degradation of the PD-L1 protein (PD-L1 [1]): significantly promoted the degradation of the PD-L1 protein | PD-L1 protein expression on the cell surface (PD-L1 [2]; [5]): significantly inhibited the PD-L1 protein expression on the tumor cell surfaces | PD-L1 protein expression on the cell surface (PD-L1 [2]; osteosarcoma MG63 cells): significantly inhibited the PD-L1 protein expression on the tumor cell surfaces | killing effect of T cells on tumor cells [3]: significantly enhanced the killing effect of T cells on tumor cells | killing effect of T cells on tumor cells (osteosarcoma MG63 cells): significantly enhanced the killing effect of T cells on tumor cells | PD-L1 total protein expression (PD-L1 [4]; [5]): significantly inhibited the PD-L1 total protein expression | PD-L1 total protein expression (PD-L1 [4]; osteosarcoma MG63 cells): significantly inhibited the PD-L1 total protein expression
